Data from patent US8293909B2, “Compounds for the treatment of hepatitis C” (Bristol-Myers Squibb Company, priority 2008, dated 2012).

Columns and labels:
[1] = biological target: T1, HCV NS5B RdRp genotype 1b (Hepatitis C virus genotype 1b, UniProt Q9WMX2); experiment: HCV NS5B RdRp enzyme assay (standard / modified); assay type: biochemical; conditions: HCV NS5B genotype 1b
T1 construct: The protein was expressed with an 18 amino acid C-terminal truncation to enhance the solubility; made in house; host or cells: E. coli BL21(DE3), pET21a vector
T1 sequence (Q9WMX2 2420-2992): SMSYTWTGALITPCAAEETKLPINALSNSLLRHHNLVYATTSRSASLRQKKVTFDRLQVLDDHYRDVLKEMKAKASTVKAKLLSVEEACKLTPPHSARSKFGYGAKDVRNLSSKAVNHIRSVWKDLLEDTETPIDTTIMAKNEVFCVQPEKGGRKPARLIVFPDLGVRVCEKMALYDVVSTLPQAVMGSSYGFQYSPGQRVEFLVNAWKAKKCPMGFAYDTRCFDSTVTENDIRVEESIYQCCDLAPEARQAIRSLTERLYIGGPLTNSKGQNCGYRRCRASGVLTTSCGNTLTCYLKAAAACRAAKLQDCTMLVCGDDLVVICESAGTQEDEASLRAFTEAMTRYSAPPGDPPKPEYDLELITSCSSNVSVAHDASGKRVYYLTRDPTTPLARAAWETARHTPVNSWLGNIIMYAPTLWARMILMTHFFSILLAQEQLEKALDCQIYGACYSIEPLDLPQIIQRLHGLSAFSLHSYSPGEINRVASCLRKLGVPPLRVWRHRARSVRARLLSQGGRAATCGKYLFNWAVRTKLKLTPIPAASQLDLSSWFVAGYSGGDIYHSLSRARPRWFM
Experimental: HCV NS5B RdRp cloning, expression, and purification. The cDNA encoding the NS5B protein of HCV, genotype 1b, was cloned into the pET21a expression vector. The protein was expressed with an 18 amino acid C-terminal truncation to enhance the solubility. The E. coli competent cell line BL21(DE3) was used for expression of the protein. Cultures were grown at 37° C. for ˜4 hours until the cultures reached an optical density of 2.0 at 600 nm. The cultures were cooled to 20° C. and induced with 1 mM IPTG. Fresh ampicillin was added to a final concentration of 50 μg/ml and the cells were grown overnight at 20° C.
Cell pellets (3 L) were lysed for purification to yield 15-24 mgs of purified NS5B. The lysis buffer consisted of 20 mM Tris-HCl, pH 7.4, 500 mM NaCl, 0.5% triton X-100, 1 mM DTT, 1 mM EDTA, 20% glycerol, 0.5 mg/ml lysozyme, 10 mM MgCl2, 15 ug/ml deoxyribonuclease I, and Complete™ protease inhibitor tablets (Roche). After addition of the lysis buffer, frozen cell pellets were resuspended using a tissue homogenizer. To reduce the viscosity of the sample, aliquots of the lysate were sonicated on ice using a microtip attached to a Branson sonicator. The sonicated lysate was centrifuged at 100,000×g for 1 hr at 4° C. and filtered through a 0.2 μm filter unit (Corning).
The protein was purified using three sequential chromatography steps: Heparin sepharose CL-6B, polyU sepharose 4B, and Hitrap SP sepharose (Pharmacia). The chromatography buffers were identical to the lysis buffer but contained no lysozyme, deoxyribonuclease I, MgCl2 or protease inhibitor and the NaCl concentration of the buffer was adjusted according to the requirements for charging the protein onto the column. Each column was eluted with a NaCl gradient which varied in length from 5-50 column volumes depending on the column type. After the final chromatography step, the resulting purity of the enzyme is >90% based on SDS-PAGE analysis. The enzyme was aliquoted and stored at −80° C.
Standard HCV NS5B RdRp enzyme assay. HCV RdRp genotype 1b assays were run in a final volume of 60 μl in 96 well plates (Costar 3912). The assay buffer is composed of 20 mM Hepes, pH 7.5, 2.5 mM KCl, 2.5 mM MgCl2, 1 mM DTT, 1.6 U RNAse inhibitor (Promega N2515), 0.1 mg/ml BSA (Promega R3961), and 2% glycerol. All compounds were serially diluted (3-fold) in DMSO and diluted further in water such that the final concentration of DMSO in the assay was 2%. HCV RdRp genotype 1b enzyme was used at a final concentration of 28 nM. A polyA template was used at 6 nM, and a biotinylated oligo-dT12 primer was used at 180 nM final concentration. Template was obtained commercially (Amersham 27-4110). Biotinylated primer was prepared by Sigma Genosys. 3H-UTP was used at 0.6 μCi (0.29 μM total UTP). Reactions were initiated by the addition of enzyme, incubated at 30° C. for 60 min, and stopped by adding 25 μl of 50 mM EDTA containing SPA beads (4 μg/μl, Amersham RPNQ 0007). Plates were read on a Packard Top Count NXT after >1 hr incubation at room temperature.
Modified HCV NS5B RdRp enzyme assay. A modified enzyme assay was performed essentially as described for the standard enzyme assay except for the following: The biotinylated oligo dT12 primer was precaptured on streptavidin-coated SPA beads by mixing primer and beads in assay buffer and incubating at room temperature for one hour. Unbound primer was removed after centrifugation. The primer-bound beads were resuspended in 20 mM Hepes buffer, pH 7.5 and used in the assay at final concentrations of 20 nM primer and 0.67 μg/μl beads. Order of addition in the assay: enzyme (14 nM) was added to diluted compound followed by the addition of a mixture of template (0.2 nM), 3H-UTP (0.6 μCi, 0.29 μM), and primer-bound beads, to initiate the reaction; concentrations given are final. Reactions were allowed to proceed for 4 hours at 30° C.
IC50 values for compounds were determined using seven different [I]. […]

HCV replicon cells = experiment: HCV replicon assay (FRET or luciferase readout); assay type: cell-based; conditions: Hepatitis C virus
Excerpt: FRET Assay Preparation. To perform the HCV FRET screening assay, 96-well cell culture plates were used. The FRET peptide (Anaspec, Inc.) (Taliani et al., Anal. Biochem. 1996, 240, 60-67) contains a fluorescence donor, EDANS, near one end of the peptide and an acceptor, DABCYL, near the other end. The fluorescence of the peptide is quenched by […] resonance energy transfer (RET) between the donor and the acceptor, but as the NS3 protease cleaves the peptide the products are released from RET quenching and the fluorescence of the donor becomes apparent. The assay reagent was made as follows: 5× cell Luciferase cell culture lysis reagent from Promega (#E153A) diluted to 1× with dH2O, NaCl added to 150 mM final, the FRET peptide diluted to 20 μM final from a 2 mM stock.
To prepare plates, HCV replicon cells, with or without a Renilla luciferase reporter gene, were trypsinized and placed into each well of a 96-well plate with titrated test compounds added in columns 3 through 12; columns 1 and 2 contained a control compound (HCV protease inhibitor), and the bottom row contained cells without compound. The plates were then placed in a CO2 incubator at 37° C.
Assays. Subsequent to addition of the test compounds described above (FRET Assay Preparation), at various times the plate was removed and Alamar blue solution (Trek Diagnostics, #00-100) was added per well as a measure of cellular toxicity. After reading in a Cytoflour 4000 instrument (PE Biosystems), plates were rinsed with PBS and then used for FRET assay by the addition of 30 ul of the FRET peptide assay reagent described above (FRET Assay Preparation) per well. The plate was then placed into the Cytoflour 4000 instrument which had been set to 340 excite/490 emission, automatic mode for 20 cycles and the plate read in a kinetic mode. Typically, the signal to noise using an endpoint analysis after the reads was at least three-fold. Alternatively, after Alamar blue reading, plates were rinsed with PBS, 50 ul of DMEM (high glucose) without phenol red was added and plates were then used for luciferase assay using the Promega Dual-Glo Luciferase Assay System.
Compound analysis was determined by quantification of the relative HCV replicon inhibition and the relative cytotoxicity values. To calculate cytoxicity values, the average Alamar Blue fluorescence signals from the control wells were set as 100% non-toxic. The individual signals in each of the compound test wells were then divided by the average control signal and multiplied by 100% to determine […]. To calculate the HCV replicon inhibition values, an average background value was obtained from the two wells containing the highest amount of HCV protease inhibitor at the end of the assay period. These numbers were similar to those obtained from naïve Huh-7 cells.
The background numbers were then subtracted from the average signal obtained from the control wells and this number was used as 100% activity. The individual signals in each of the compound test wells were then divided by the averaged control values after background subtraction and multiplied by 100% to determine percent activity. EC50 values for a protease inhibitor titration were calculated as the concentration which caused a 50% reduction in FRET or luciferase activity. The two numbers generated for the compound plate, percent cytoxicity and percent activity were used to determine compounds of interest for further analysis.

Compound | IC50 ([1]; Table 1) | EC50 (HCV replicon cells; Table 1) | IC50 ([1]; Table 2) | EC50 (HCV replicon cells; Table 2)
CNC(=O)c1c(-c2ccc(F)cc2)oc2cnc(-c3cccc(C(=O)NC4(c5ccccn5)CC4)c3)cc12 | 2 to 250 nM | 1000 to 10000 nM | – | –
CNC(=O)c1c(-c2ccc(F)cc2)oc2ncc(-c3cc(C(=O)NC4(c5ncccn5)CC4)ccc3C)cc12 | 2 to 250 nM | 2 to 250 nM | – | –
CNC(=O)c1c(-c2ccc(F)cc2)nn2cc(N(CCO)S(C)(=O)=O)c(-c3cc(C(=O)NCC(C)C)ccc3Cl)cc12 | 2 to 250 nM | 250 to 1000 nM | – | –
CNC(=O)c1c(-c2ccc(F)cc2)nn2cc(N(CCO)S(C)(=O)=O)c(OC)cc12 [drawing 184] | – | – | 2920 nM | 3990 nM
CNC(=O)c1c(-c2ccc(F)cc2)nn2ccc(-c3cc(C(=O)NC4(c5ccccc5)CC4)ccc3C)c(F)c12 [drawing 127] | 2 to 250 nM | 2 to 250 nM | – | –
CNC(=O)c1c2cc(-c3cc(C(=O)NC(C)(C)c4ccccc4)ccc3Cl)ccc2nn1-c1ccc(F)cc1 | 2 to 250 nM | 2 to 250 nM | – | –
CNC(=O)c1c(-c2ccc(F)cc2)nn2ccc(-c3cc(C(=O)NC4(C)CC4)c(OC)cc3C)c(F)c12 | 2 to 250 nM | 2 to 250 nM | – | –
CNC(=O)c1c(-c2ccc(F)cc2)nn2ccc(-c3cc(C(=O)NC4(c5ccccn5)CC4)c(OC)cc3C)c(F)c12 [drawing 135] | 2 to 250 nM | 2 to 250 nM | – | –
CNC(=O)c1c(-c2ccc(F)cc2)nn2ccc(-c3cc(C(=O)NC4(c5ccc(F)cc5)CC4)ccc3C)cc12 | 2 to 250 nM | 2 to 250 nM | – | –
CNC(=O)c1c(-c2ccc(F)cc2)nn2ccc(-c3cc(C(=O)NC4(c5ncccn5)CC4)ccc3C)c(F)c12 | 2 to 250 nM | 2 to 250 nM | – | –
CNC(=O)c1c(-c2ccc(F)cc2)nn2cc(N(CCO)S(C)(=O)=O)c(-c3cccc(C(=O)NC(C)(C)c4ccccc4)c3)cc12 | 2 to 250 nM | 2 to 250 nM | – | –
CNC(=O)c1c(-c2ccc(F)cc2)nn2ccc(-n3cc(C(=O)NC(C)(C)c4ccccc4)ccc3=O)cc12 | 2 to 250 nM | 250 to 1000 nM | – | –
CNC(=O)c1c(-c2ccc(F)cc2)nn2ccc(NCc3ccccc3)cc12 | > 10000 nM | > 10000 nM | – | –
CNC(=O)c1c(-c2ccc(F)cc2)nn2ccc(-c3cc(C(=O)NC4(c5ccccc5)CC4)cc(F)c3C)c(F)c12 [drawing 175] | – | – | 30 nM | 4.32 nM
CNC(=O)c1c2cc(-c3cccc(C(=O)NC4(c5ccccn5)CC4)c3)ccc2nn1-c1ccc(F)cc1 | 1000 to 10000 nM | 1000 to 10000 nM | – | –
CNC(=O)c1c(-c2ccc(F)cc2)nn2ccc(NC(=O)c3ccc(OC)cc3)cc12 | > 10000 nM | > 10000 nM | – | –
CNC(=O)c1c(-c2ccc(F)cc2)nn2ccc(-c3cc(C(=O)NC4(c5ccccn5)CC4)ccc3C)c(F)c12 [drawing 177] | – | – | 5 nM | 7.15 nM
CNC(=O)c1c(-c2ccc(F)cc2)oc2ccc(-c3cccc(C(=O)NC4(c5ccccn5)CC4)c3)nc12 | 1000 to 10000 nM | 250 to 1000 nM | – | –
CNC(=O)c1c(-c2ccc(F)cc2)nn2ccc(-c3cc(C(=O)NC4(c5ccccc5)CC4)c(OC)cc3C)c(F)c12 [drawing 134] | 2 to 250 nM | 2 to 250 nM | – | –
CNC(=O)c1c(-c2ccc(F)cc2)nc2ccc(-c3ccc(-c4ccccc4)c(C(=O)NCC(C)C)c3)cn12 | > 500 nM | 250 to 1000 nM | – | –
CNC(=O)c1c(-c2ccc(F)cc2)nn2cc(N(CCO)S(C)(=O)=O)ccc12 | > 10000 nM | > 10000 nM | – | –
CNC(=O)c1c(-c2ccc(F)cc2)nn2ccc(-c3cccc(C(=O)NC(C)(C)c4ccccc4)c3)cc12 | 2 to 250 nM | 2 to 250 nM | – | –
CNC(=O)c1c(-c2ccccc2)nn2cc(-c3ccccc3CO)ccc12 | > 10000 nM | > 10000 nM | – | –
CNC(=O)c1c2cc(-c3cccc(C(=O)NC(C)(C)c4ccccc4)c3)ccc2nn1-c1ccc(F)cc1 | 2 to 250 nM | 250 to 1000 nM | – | –
CNC(=O)c1c(-c2ccc(F)cc2)sc2ccc(-c3cccc(C(=O)NC4(c5ccccc5)CC4)c3)cc12 | 250 to 1000 nM | 1000 to 10000 nM | – | –
CNC(=O)c1c(-c2ccc(F)cc2)sc2ccc(-c3cccc(C(=O)NC(C)(C)c4ccccc4)c3)cc12 | 2 to 250 nM | 250 to 1000 nM | – | –
CNC(=O)c1c(-c2ccc(F)cc2)nn2ccc(-c3cc(C(=O)NC4(c5ccccn5)CC4)ccc3C)cc12 [drawing 88] | 2 to 250 nM | 2 to 250 nM | – | –
CNC(=O)c1c(-c2ccc(F)cc2)sc2ccc(-c3cccc(C(=O)NC(C)(C)C)c3)cc12 [drawing 183] | – | – | > 4170 nM | 1860 nM
